Measured values taken from patent publication US8597904B2, “Pharmaceutical compositions for the treatment of conditions responsive to proteasome inhibition” (priority 2007, dated 2013).

What was measured:
[1] = biological target: T1, human erythrocyte 20S proteasomes, trypsin-like activity (Homo sapiens, UniProt Q99436); assay: 20S Proteasome Assay Kit, Boc-LRR-AMC substrate; format: biochemical; settings: 37° C., 100 μM Boc-LRR-AMC
T1 construct: which contains human erythrocyte 20S proteasomes; purchased BIOMOL International AK-740; host or cells: human erythrocytes
Method: The eukaryotic 20S proteasome contains three catalytic subunits (β1, β2, and (β5) conferring caspase-like, trypsin-like and chymotrypsin-like proteolytic activities, respectively (Borissenko and Groll. 2007. Chem. Rev. 107:687-717, which is incorporated herein by reference in its entirety). Syringolin A was tested as a proteasome inhibitor using the 20S Proteasome Assay Kit for Drug Discovery AK-740 (BIOMOL® International, Plymouth Meeting, PA, USA), which contains human erythrocyte 20S proteasomes, in a 96-well microtiter plate. The fluorogenic substrates Suc-LLVY-AMC, Boc-LRR-AMC, and Z-LLE-AMC (BIOMOL® International) were used to monitor chymotrypsin-like, trypsin-like, and caspase-like activities, respectively. […] The release of free AMC (7-amino-4-methylcoumarin) at 37° C. was monitored with an MWGt Sirius HT fluorescence microplate reader (BIO-TEK® Instruments) equipped with a 360 nm excitation and a 460 nm emission filter. Proteolytic activities were measured as the increase in relative fluorescence units (RFU) over time (FIG. 7A-C). […] The initial velocities (vi) were determined from the time derivative of these curves and plotted versus the corresponding inhibitor concentration ([I]). […] The rate of covalent inhibition (kassociation), which equals kobs/[I] was calculated over the range of inhibitor concentrations given in parentheses in FIG. 7D. […]

p53 = assay: Western blot of total p53 protein levels in SK-N-SH cells; format: cell-based, human
Method: Because p53 is a key regulator and mediator of apoptosis, the total protein levels of p53 in the p53-wild type cell line SK-N-SH were measured after treatment of cells with syringolin A. As a control, the p53-deficient cell line SKOV3 was tested in parallel. Cells at a concentration of 1.0×10^5 cells per ml were first seeded in six-well plates containing 2 ml of culture medium per well. […] Cells were incubated for 0, 24, and 48 hours, harvested, and lysed in radioimmuno-precipitation assay (RIPA) buffer (20 mM Tris-HCl, pH 7.5, 0.1% sodium lauryl sulphate, 0.5% sodium deoxycholate, 135 mM NaCl, 1% Triton X-100, 10% glycerol, 2 mM EDTA), supplemented with a protease inhibitor cocktail (Roche Molecular Biochemicals, Indianapolis, Ind.) and phosphatase inhibitors sodium fluoride (NaF; 20 mM) and sodium vanadate (Na3VO4; 0.27 mM). The total protein concentration was determined using the protein assay dye reagent from Bio-Rad Laboratories (Hercules, Calif.) and bovine serum albumin (BSA) as a standard. Cell lysates in Laemmli sample buffer (Bio-Rad Laboratories, Hercules, Calif.) containing 5% (v/v) β-mercaptoethanol were boiled for 5 minutes, and equal amounts of total protein were analyzed by 10% sodium dodecyl sulphate-polyacrylamide gel electrophoresis (SDS-PAGE) and Western blotting using PVDF membranes. p53 was detected in Western blotting with mouse monoclonal anti-p53 (sc-126) (diluted 1:250) from Santa Cruz Biotechnology (Santa Cruz, Calif.). Actin was also detected as a loading control using mouse monoclonal anti-β-actin (A5316) (diluted 1:1000) from Sigma Chemical Co. (St. Louis, Mo.). Alternatively, lysates were blotted with rabbit monoclonal anti-caspase-3 (#9665) (diluted 1:1000) or rabbit polyclonal anti-Akt (#9272) (diluted 1:1000), both from Cell Signalling Technology, Inc. (Beverly, Mass.) to test for levels of procaspase-3 and Akt/PKB. Secondary anti-mouse (diluted 1:5000) and anti-rabbit (diluted 1:5000) antibodies coupled to horseradish peroxidase (HRP) were from Amersham Biosciences (Piscataway, N.J.). Proteins were detected using the ECL Plus reagents (Amersham Biosciences, Piscataway, N.J.) and Kodak BioMax XAR film (Fisher Scientific, Pittsburgh, Pa.). The results are representative of three (p53, procaspase-3) or four (Akt/PKB) independent experiments.
As inhibition of the proteasome is expected to result in increased levels of ubiquitinated proteins (Meng, et al. 1999. Proc. Natl. Acad. Sci. U.S.A. 96:10403-10408, which is incorporated herein by reference in its entirety), the effect of syringolin A on total ubiquitinated protein accumulation was analyzed by immunoblot analysis. To do so, SK-N-SH cells were seeded in 6-well cell culture plates at a concentration of 3.8×10^5 cells per ml (1.98 ml per well). […]

CC(C)[C@H](NC(=O)N[C@H](C(=O)N[C@H]1/C=C/CCNC(=O)/C=C/[C@H](C(C)C)NC1=O)C(C)C)C(=O)O [syringolin A]
inhibition of trypsin-like activity [1]: inhibited | p53 levels (p53; 20 μM, 24 hours after treatment): rapidly increased | protein levels of tumor suppressor protein p53 (p53; 25 μM, time-course up to 24 hours): time-dependent increase

CCCCCCC/C=C/C=C/C(=O)N[C@H](C(=O)N[C@H]1C[C@@H](O)CCNC(=O)/C=C/[C@H](C)NC1=O)[C@@H](C)O [glidobactin A]
inhibition of trypsin-like activity [1]: less sensitive | total protein levels of p53 (p53; GlbA treatment): strong accumulation of p53 | GlbA-induced p53 levels in presence of 3-MA (p53; GlbA with 3-MA): partially reduced
